# Measurements taken from ChEMBL document CHEMBL4038307, “Influence of a Basic Side Chain on the Properties of Hypoxia-Selective Nitro Analogues of the Duocarmycins: Demonstration of Substantial Anticancer Activity in Combination with Irradiation or Chemotherapy” (J Med Chem, 2017).
# Activity calls are given as the source filed them. No cut-off for these calls is given here.
# What was measured:
# Mus musculus [1] = assay: Toxicity in CD-1 Foxn1 nude mouse xenografted with human SiHa cells assessed as sporadic acute toxicity at 42 to 56 umol/kg, iv; details: in vivo
# HCT-116 = assay: Antitumor activity against human HCT116 cells xenografted in CD-1 Foxn1 nude mouse assessed as reduction in colony forming cells at 56 umol/kg, iv treated 5 mins after gamma irradiation measured after 18 hrs by excision assay; type: functional, organism-based
# Mus musculus [2] = assay: Toxicity in CD-1 Foxn1 nude mouse xenografted with human SiHa cells assessed as body weight change at 42 to 56 umol/kg, iv after 100 to 120 days in presence of gemcitabine; type: organism-based; details: in vivo
# SiHa [3] = assay: Antitumor activity against human SiHa cells xenografted in CD-1 Foxn1 nude mouse assessed as log reduction in colony forming cells under hypoxic condition at 42 umol/kg, iv treated 5 mins after gamma irradiation measured after 18 hrs by excision assay; type: functional
# A2780 [4] = assay: Antitumor activity against human A2780 cells xenografted in CD-1 Foxn1 nude mouse assessed as tumor regression at 42 to 56 umol/kg, iv after 8 to 23 days in presence of gemcitabine; type: functional, organism-based
# SiHa [5] = assay: Antitumor activity against human SiHa cells xenografted in CD-1 Foxn1 nude mouse assessed as tumor regression at 42 to 56 umol/kg, iv after more than 100 days in presence of gemcitabine; type: functional, organism-based
# SiHa [6] = assay: Antitumor activity against human SiHa cells xenografted in CD-1 Foxn1 nude mouse assessed as tumor regression at 42 to 56 umol/kg, iv after more than 100 days; type: functional, organism-based
# A2780 [7] = assay: Antitumor activity against human A2780 cells xenografted in CD-1 Foxn1 nude mouse assessed as tumor regression at 42 to 56 umol/kg, iv after 100 days; type: functional, organism-based
# A2780 [8] = assay: Antitumor activity against human A2780 cells xenografted in CD-1 Foxn1 nude mouse assessed as tumor regression at 42 to 56 umol/kg, iv after 100 days in presence of gemcitabine; type: functional, organism-based
# NCI-H1299 = assay: Antitumor activity against human H1299 cells xenografted in CD-1 Foxn1 nude mouse assessed as reduction in colony forming cells at 75 umol/kg, iv treated 5 mins after gamma irradiation measured after 18 hrs by excision assay; type: functional, organism-based
# CWR22R [9] = assay: Antitumor activity against human 22Rv1 cells xenografted in CD-1 Foxn1 nude mouse assessed as reduction in colony forming cells under hypoxic condition at 30 umol/kg, iv treated 5 mins after gamma irradiation measured after 18 hrs by excision assay; type: functional, organism-based
# NCI-H460 = assay: Antitumor activity against human H460 cells xenografted in CD-1 Foxn1 nude mouse assessed as reduction in colony forming cells under hypoxic condition at 75 umol/kg, iv treated 5 mins after gamma irradiation measured after 18 hrs by excision assay; type: functional, organism-based
# CWR22R [10] = assay: Antitumor activity against human 22Rv1 cells xenografted in CD-1 Foxn1 nude mouse assessed as tumor stasis at 32 umol/kg, ip once in every two weeks after 100 to 120 days; type: functional, organism-based
# Mus musculus [11] = assay: Toxicity in CD-1 Foxn1 nude mouse xenografted with human 22Rv1 cells assessed as change in body weight at 32 umol/kg, ip once in every two weeks after 100 to 120 days; type: organism-based; details: in vivo
# CWR22R [12] = assay: Antitumor activity against human 22Rv1 cells xenografted in CD-1 Foxn1 nude mouse assessed as median tumor growth delay time at 32 umol/kg, ip once in every two weeks after 100 to 120 days; type: functional
# A2780 [13] = assay: Antitumor activity against human A2780 cells xenografted in CD-1 Foxn1 nude mouse assessed as tumor regression at 133 umol/kg, ip four times for every three days after 100 to 120 days; type: functional, organism-based
# A2780 [14] = assay: Antitumor activity against human A2780 cells xenografted in CD-1 Foxn1 nude mouse assessed as delay in tumor growth at 100 umol/kg, ip four times for every three days after 100 to 120 days; type: functional, organism-based
# Mus musculus [15] = assay: Toxicity in CD-1 Foxn1 nude mouse xenografted with human SiHa cells assessed as lose in body weight at 133 umol/kg, ip four times for every three days after 100 to 120 days; type: organism-based; details: in vivo
# SiHa [16] = assay: Antitumor activity against human SiHa cells xenografted in CD-1 Foxn1 nude mouse assessed as tumor regrowth at 237 umol/kg, ip four times for every three days after 100 to 120 days; type: functional, organism-based
# Mus musculus [17] = assay: Toxicity in CD-1 Foxn1 nude mouse xenografted with human A2780 cells assessed as change in body weight at 15 umol/kg, iv after 100 to 120 days in presence of gemcitabine; type: organism-based; details: in vivo
# A2780 [18] = assay: Antitumor activity against human A2780 cells xenografted in CD-1 Foxn1 nude mouse assessed as tumor regrowth at 15 umol/kg, iv after 100 to 120 days; type: functional, organism-based
# Mus musculus [19] = assay: Toxicity in CD-1 Foxn1 nude mouse xenografted with human 22Rv1 cells at 14 umol/kg, ip; details: in vivo
# CWR22R [20] = assay: Antitumor activity against human 22Rv1 cells xenografted in CD-1 Foxn1 nude mouse assessed as median tumor growth delay time at 15 umol/kg, iv after 100 to 120 days in presence of docetaxel; type: functional
# Mus musculus [21] = assay: Toxicity in CD-1 Foxn1 nude mouse xenografted with human A2780 cells at 15 umol/kg, iv after 100 to 120 days in presence of gemcitabine; type: organism-based; details: in vivo
# A2780 [22] = assay: Antitumor activity against human A2780 cells xenografted in CD-1 Foxn1 nude mouse assessed as median tumor growth delay time at 15 umol/kg, iv after 100 to 120 days in presence of gemcitabine; type: functional
# Mus musculus [23] = assay: Toxicity in CD-1 Foxn1 nude mouse xenografted with human 22Rv1 cells assessed as change in body weight at 14 umol/kg, ip; details: in vivo
# CWR22R [24] = assay: Antitumor activity against human 22Rv1 cells xenografted in CD-1 Foxn1 nude mouse assessed as tumor regrowth at 14 umol/kg, iv after 100 to 120 days; type: functional, organism-based
# CWR22R [25] = assay: Antitumor activity against human 22Rv1 cells xenografted in CD-1 Foxn1 nude mouse assessed as tumor regression at 14 umol/kg, iv after 100 to 120 days in presence of docetaxel; type: functional, organism-based
smiles,measurement,setting,value
CN(C)CCOc1ccc2[nH]c(C(=O)N3CC(CCl)c4c3cc([N+](=O)[O-])c3cc(S(=O)(=O)NCCOP(=O)(O)O)ccc43)cc2c1 (stereo not drawn),Activity,Mus musculus [1],Toxic
same,Activity,HCT-116,Active
same,Activity,Mus musculus [2],Non-Toxic
same,Activity,SiHa [3],Active
same,Activity,A2780 [4],Active
same,Activity,SiHa [5],Active
same,Activity,SiHa [6],Active
same,Activity,A2780 [7],inactive
same,Activity,A2780 [8],Active
same,Activity,NCI-H1299,Active
same,Activity,CWR22R [9],Active
same,Activity,NCI-H460,Active
CC(=O)O[C@@]12CO[C@@H]1C[C@H](O)[C@@]1(C)C(=O)[C@H](O)C3=C(C)[C@@H](OC(=O)[C@H](O)[C@@H](NC(=O)OC(C)(C)C)c4ccccc4)C[C@@](O)([C@@H](OC(=O)c4ccccc4)[C@H]21)C3(C)C [DOCETAXEL ANHYDROUS],Activity,CWR22R [10],inactive
same,Activity,Mus musculus [11],Toxic
same,Time,CWR22R [12],13 days
Nc1ccn([C@@H]2O[C@H](CO)[C@@H](O)C2(F)F)c(=O)n1 [GEMCITABINE],Activity,A2780 [13],Active
same,Activity,A2780 [14],Active
same,Activity,Mus musculus [15],5%
same,Activity,SiHa [16],Active
Nc1cc2c(c3ccc(S(=O)(=O)NCCOP(=O)(O)O)cc13)C(CCl)CN2C(=O)c1cc2cc(OCCN3CCOCC3)ccc2[nH]1 (stereo not drawn),Activity,HCT-116,Active
same,Activity,Mus musculus [17],Non-Toxic
same,Activity,SiHa [3],>1
same,Activity,A2780 [18],inactive
same,Activity,Mus musculus [19],Non-Toxic
same,Time,CWR22R [20],17 days
same,Activity,Mus musculus [21],Non-Toxic
same,Time,A2780 [22],14 days
same,Activity,NCI-H1299,Active
same,Activity,CWR22R [9],Active
same,Activity,Mus musculus [23],Non-Toxic
same,Activity,CWR22R [24],inactive
same,Activity,NCI-H460,Active
same,Activity,CWR22R [25],Active
